This note sets out measurements from patent EP2790511B1 (Merck Sharp & Dohme Corp., priority 2011, dated 2013).

The term IC50 denotes the concentration at which inhibition is half-maximal.

Structures are written as SMILES.

One test has as its target T1, hROMK (hKir1.1) (Homo sapiens, UniProt P48048).
T1 construct: expressed in transfected cells
T1 sequence (P48048 1-391): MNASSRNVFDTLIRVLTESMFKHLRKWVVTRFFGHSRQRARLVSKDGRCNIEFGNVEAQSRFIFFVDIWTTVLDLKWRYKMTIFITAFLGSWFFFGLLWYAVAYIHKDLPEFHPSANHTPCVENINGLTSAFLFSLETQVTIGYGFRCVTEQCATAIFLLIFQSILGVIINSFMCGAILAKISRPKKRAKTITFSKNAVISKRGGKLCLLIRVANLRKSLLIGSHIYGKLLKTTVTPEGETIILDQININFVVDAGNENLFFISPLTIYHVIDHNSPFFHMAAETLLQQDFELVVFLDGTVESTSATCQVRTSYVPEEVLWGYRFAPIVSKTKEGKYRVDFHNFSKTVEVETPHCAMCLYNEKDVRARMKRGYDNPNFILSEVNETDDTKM
Nature of the test: Thallium Flux Assay. It is filed as cell-based. The following applies: HEK293 cells stably expressing hROMK (hKir1.1), FLIPR-Tetra; read-out: Thallium Flux IC50. On the procedure: Cell Culture Conditions- HEK293 cells stably expressing hROMK (hKir1.1) were grown at 37°C in a 10%CO2 humidified incubator in complete growth media: Dulbecco's Modified Eagle Medium supplemented with non-essential amino acids, Penicillin/Streptomycin/Glutamine, G418 and FBS. At >80% confluency, aspirate the media from the flask and rinse with 10 mL Calcium/Magnesium-free PBS. […] To dislodge the cell, gently bang the side of the flask with your hand. Triturate the cells completely and then transfer the cells to 25 mL complete media. Centrifuge at 1,500 rpm for 6 min followed by resuspension in complete growth media and determine cell concentration. […] Under ideal growth conditions and appropriate tissue culture practices, this cell line is stable for 40-45 passages.
• FluxOR™ Reagent (Component A) • FluxOR™ Assay Buffer (Component B) - 10X Concentrate • PowerLoad™ Concentrate (Component C) - 100X Concentrate • Probenecid (Component D) - Lyophilized sample is kept at -20°C. Water soluble, 100X after solubilization in 1 mL water. […] Store at 4°C. • Thallium sulfate (Tl2SO4) Concentrate (Component G) - 50 mM in water. Store at 4°C • DMSO (dimethyl sulfoxide, Component H) - 1 mL (100%)
• 1000X FluxOR™ Reagent: Reconstitute a vial of component A in 100 µl DMSO; Mix well; Store 10 µl aliquots at -20°C • 1X FluxOR™ Assay Buffer: Dilute Component B 10-fold with water; Adjust pH to 7.4 with Hepes/NaOH; Filter and store at 4°C • Probenecid/Assay Buffer: 100 mL of 1X FluxOR™ Assay Buffer; 1 mL of reconstituted component D; Store at 4°C • Loading Buffer (per microplate): 10 µl 1000X FluxOR™ Reagent; 100 µl component C; 10 mL Probenecid/Assay Buffer • Compound Buffer (per microplate): 20 mL Probenecid/Assay Buffer; 0.3 mM ouabain (10 mM ouabain in water can be stored in amber bottle/aluminum foil at room temperature); Test compound • 1X FluxOR™Chloride-Free Buffer: Prepare 1X working solution in water. Can be stored at room temperature • Stimulant Buffer (prepared at 5X final concentration in 1X FluxOR™Chloride-Free Buffer): 7.5 mM Thallium sulfate and 0.75 mM Potassium sulfate (to give a final assay concentration of 3 mM Thallium/ 0.3 mM Potassium). Store at 4°C when not in use. If kept sterile, this solution is good for months.
Assay protocol- The ROMK channel functional thallium flux assay is performed in 384 wells, using the FLIPR-Tetra instrument. HEK-hKir1.1 cells are seeded in Poly-D-Lysine microplates and kept in a 37°C-10%CO2 incubator overnight. On the day of the experiment, the growth media is replaced with the FluxOR™ reagent loading buffer and incubated, protected from light, at ambient temperature (23-25°C) for 90 min. The loading buffer is replaced with assay buffer ± test compound followed by 30 min incubation at ambient temperature, where the Thallium/Potassium stimulant is added to the microplate.
• 1. Seed HEK-hKir1.1 cells (50 µl at 20,000 cells/well) in 384-well PDL coated Microplates • 2. Allow cells to adhere overnight in humidified 37°C/10%CO2 incubator • 3. Completely remove cell growth media from microplate and replace with 25 µl loading buffer • 4. Incubate Microplate at room temperature, protected form light, for 90 min • 5. Remove loading buffer and replace with 25 µl 1x Assay Buffer ± test compound. • 6. Incubate microplate at room temperature, protected form light, for 30 min • 7. […] Excitation = 400 nm, Emission = 460 & 580 nm. Collect data for ∼ 10 min.
Data Calculation- The fluorescence intensity of wells containing 3 µM of a standard control ROMK inhibitor of the present invention is used to define the ROMK-sensitive component of thallium flux. Fluorescence in the presence of test compounds is normalized to control values to provide % fluorescence change.
As to `N#Cc1c(F)ccc([C@H]2CN3CCN(C(=O)Cc4ccc(-n5cnnn5)cn4)C[C@H]3CO2)c1F` [Example 86], the 50% inhibitory concentration (IC50) amounted to 290 nM.

For the compound `Cc1c([C@H]2CN3CCN(C(=O)Cc4cnc(-n5cnnn5)nc4)C[C@H]3CO2)ccc2c1COC2=O` [Example 15, 4-methyl-5-[(3S,9aS)-8-{[2-(1H-tetrazol-1-yl)pyrimidin-5-yl]acetyl}octahydropyrazino[2,1-c][1,4]oxazin-3-yl]benzofuran-1(3H)-one], the half-inhibitory concentration (IC50) turned out to be 140 nM.

On to `COc1cc([C@H]2CN3CCN(C(=O)Cc4ccc(-n5cnnn5)nc4)C[C@H]3CO2)ccc1C#N` [Example 56, 2-methoxy-4-[(3S,9aS)-8-{[6-(1H-tetrazol-1-yl)pyridin-3-yl]acetyl}octahydropyrazino[2,1-c][1,4]oxazin-3-yl]benzonitrile], for which the half-inhibitory concentration (IC50) came to 120 nM.

In the case of `O=C1OCCc2cc([C@@H]3CN4CCN(C(=O)Cc5cnc(-n6cnnn6)cn5)C[C@H]4CO3)ccc21` [Example 80, 6-[(3R,9aS)-8-{[5-(1H-tetrazol-1-yl)pyrazin-2-yl]acetyl}octahydropyrazino[2,1-c][1,4]oxazin-3-yl]-3,4-dihydro-1H-isochromen-1-one], the IC50 came out at 500 nM.

With `Cc1c([C@@H]2CN3CCN(C(=O)Cc4cnc(-n5cnnn5)nc4C(F)(F)F)C[C@H]3CO2)ccc(F)c1C#N` [Example 159, 6-fluoro-2-methyl-3-[(3R,9aS)-8-{[2-(1H-tetrazol-1-yl)-4-(trifluoromethyl)pyrimidin-5-yl]acetyl}octahydropyrazino[2,1-c][1,4]oxazin-3-yl]benzonitrile], the IC50 came out at 260 nM.

On to `N#Cc1c(F)cc([C@H]2CN3CCN(C(=O)Cc4ccc(-n5cnnn5)nc4)C[C@H]3CO2)cc1F` [Example 109, 2,6-difluoro-4-[(3S,9aS)-8-{[6-(1H-tetrazol-1-yl)pyridin-3-yl]acetyl}octahydropyrazino[2,1-c][1,4]oxazin-3-yl]benzonitrile], for which the IC50 is 190 nM.

Turning to `N#Cc1c(F)ccc([C@@H]2CN3CCN(C(=O)Cc4ccc(-n5cnnn5)nc4)C[C@H]3CO2)c1Cl` [Example 51, 2-chloro-6-fluoro-3-[(3R,9aS)-8-{[6-(1H-tetrazol-1-yl)pyridin-3-yl]acetyl}octahydropyrazino[2,1-c][1,4]oxazin-3-yl]benzonitrile], the half-maximal inhibitory concentration (IC50) came to 50 nM.

On to `Cc1c([C@@H]2CN3CCN(C(=O)Cc4cnc(-n5cnnn5)c(F)c4)C[C@@H]3CO2)ccc(F)c1C#N` [Example 146, 6-fluoro-3-[(3R,9aR)-8-{[5-fluoro-6-(1H-tetrazol-1-yl)pyridin-3-yl]acetyl}octahydropyrazino[2,1-c][1,4]oxazin-3-yl]-2-methylbenzonitrile], for which the half-inhibitory concentration (IC50) is 90 nM.

As to `Cc1c(C#N)cccc1[C@H]1CN2CCN(C(=O)Cc3cnc(-n4cnnn4)nc3)C[C@H]2CO1` [Example 18, 2-methyl-3-[(3S,9aS)-8-{[2-(1H-tetrazol-1-yl)pyrimidin-5-yl]acetyl}octahydropyrazino[2,1-c][1,4]oxazin-3-yl]benzonitrile], the half-maximal inhibitory concentration (IC50) came out at 320 nM.

Turning to `Cc1c([C@H]2CN3CCN(C(=O)Cc4ccc(-n5cnnn5)cn4)C[C@H]3CO2)csc1C#N` [Example 71, 3-methyl-4-[(3S,9aS)-8-{[5-(1H-tetrazol-1-yl)pyridin-2-yl]acetyl}octahydropyrazino[2,1-c][1,4]oxazin-3-yl]thiophene-2-carbonitrile], the IC50 came out at 390 nM.

Consider `Cc1c(C2CN3CCN(C(=O)Cc4cnc(-n5cnnn5)nc4)CC3CCO2)ccc2c1COC2=O` (single isomer, unassigned) [Example 165, 4-methyl-5-(2-{[2-(1H-tetrazol-1-yl)pyrimidin-5-yl]acetyl}octahydro-2H-pyrazino[1,2-d][1,4]oxazepin-7-yl)-2-benzofuran-1(3H)-one], for which the half-inhibitory concentration (IC50) stood at 210 nM.

Regarding `Cc1c([C@H]2CN3CCN(C(=O)Cc4ccc(-n5cnnn5)cn4)C[C@H]3CS2)ccc(F)c1C#N` [Example 186], the IC50 amounted to 270 nM.

The test is the same for the next values; noted with them: Thallium Flux IC50.
Turning to `Cc1c([C@H]2CN3CCN(C(=O)Cc4ccc(-n5cnnn5)nc4)C[C@H]3CS2(=O)=O)ccc(F)c1C#N` [Example 187, 3-[(3S,9aS)-2,2-dioxido-8-{[6-(1H-tetrazol-1-yl)pyridin-3-yl]acetyl}octahydropyrazino[2,1-c][1,4]thiazin-3-yl]-6-fluoro-2-methylbenzonitrile], half-maximal inhibition (IC50) required 280 nM.

Turning to `Cc1nc(CC(=O)N2CCN3C[C@H](c4ccc(F)c(C#N)c4C)OC[C@@H]3C2)ccc1-n1cnnn1` [Example 127, 6-fluoro-2-methyl-3-[(3S,9aS)-8-{[6-methyl-5-(1H-tetrazol-1-vl)pvridin-2-yl]acetyl}octahydropyrazino[2,1-c][1,4]oxazin-3-yl]benzonitrile], 90 nM corresponded to half-maximal inhibition (IC50).

Compound `Cc1c([C@H]2CN3CCN(C(=O)Cc4cccc(-n5cnnn5)n4)C[C@H]3CO2)ccc(F)c1C#N` [Example 97, 6-fluoro-2-methyl-3-[(3S,9aS)-8-{[6-(1H-tetrazol-1-yl)pyridin-2-yl]acetyl}octahydropyrazino[2,1-c][1,4]oxazin-3-yl]benzonitrile] had an IC50 of 250 nM.

Consider `Cc1nc(-n2cnnn2)ncc1CC(=O)N1CCN2C[C@H](c3ccc(F)c(C#N)c3C)OC[C@H]2C1` [Example 119, 6-fluoro-2-methyl-3-[(3S,9aR)-8-{[4-methyl-2-(1H-tetrazol-1-vl)pvrimidin-5-yl]acetyl}octahydropyrazino[2,1-c][1,4]oxazin-3-yl]benzonitrile], for which the IC50 was 330 nM.

For the compound `Cc1c([C@H]2CN3CCN(C(=O)Cc4cnc(-n5cnnn5)cn4)C[C@H]3CO2)ccc(F)c1C#N` [Example 76, 6-fluoro-2-methyl-3-[(3S,9aS)-8-{[5-(1H-tetrazol-1-yl)pyrazin-2-yl]acetyl}octahydropyrazino[2,1-c][1,4]oxazin-3-yl]benzonitrile], the IC50 came to 150 nM.

For `N#Cc1c(F)ccc([C@H]2CN3CCN(C(=O)Cc4ccc(-n5cnnn5)nc4)C[C@H]3CO2)c1C1CC1` [Example 181, 2-cyclopropyl-6-fluoro-3-[(3S,9aS)-8-{[6-(1H-tetrazol-1-vl)pvridin-3-yl]acetyl}octahydropyrazino[2,1-c][1,4]oxazin-3-yl]benzonitrile], the IC50 was 380 nM.

Compound `Cc1c(C#N)cccc1[C@@H]1CN2CCN(C(=O)Cc3ccc(-n4cnnn4)nc3)C[C@@H]2CO1` [Example 117, 2-methyl-3-[(3R,9aR)-8-{[6-(1H-tetrazol-1-yl)pyridin-3-yl]acetyl}octahydropyrazino[2,1-c] [1,4]oxazin-3-yl]benzonitrile] registered a 50% inhibitory concentration (IC50) of 220 nM.

For `Cc1cc(CC(=O)N2CCN3C[C@H](c4ccc(F)c(C#N)c4C)OC[C@@H]3C2)ncc1-n1cnnn1` [Example 130, 6-fluoro-2-methyl-3-[(3S,9aS)-8-{[4-methyl-5-(1H-tetrazol-1-yl)pyridin-2-yl]acetyl}octahydropyrazino[2,1-c][1,4]oxazin-3-yl]benzonitrile], inhibition was half-maximal at 190 nM (IC50).
